Assay in all cases: Kinase selectivity, P33-radiolabeled assay
Common to all, as to format: biochemical
Common to all, as to settings: 10 μM ATP

The target in one assay is T1, DCAMKL1 (Homo sapiens, UniProt O15075).
T1 construct: purchased Reaction Biology Corp
T1 sequence (O15075 1-740): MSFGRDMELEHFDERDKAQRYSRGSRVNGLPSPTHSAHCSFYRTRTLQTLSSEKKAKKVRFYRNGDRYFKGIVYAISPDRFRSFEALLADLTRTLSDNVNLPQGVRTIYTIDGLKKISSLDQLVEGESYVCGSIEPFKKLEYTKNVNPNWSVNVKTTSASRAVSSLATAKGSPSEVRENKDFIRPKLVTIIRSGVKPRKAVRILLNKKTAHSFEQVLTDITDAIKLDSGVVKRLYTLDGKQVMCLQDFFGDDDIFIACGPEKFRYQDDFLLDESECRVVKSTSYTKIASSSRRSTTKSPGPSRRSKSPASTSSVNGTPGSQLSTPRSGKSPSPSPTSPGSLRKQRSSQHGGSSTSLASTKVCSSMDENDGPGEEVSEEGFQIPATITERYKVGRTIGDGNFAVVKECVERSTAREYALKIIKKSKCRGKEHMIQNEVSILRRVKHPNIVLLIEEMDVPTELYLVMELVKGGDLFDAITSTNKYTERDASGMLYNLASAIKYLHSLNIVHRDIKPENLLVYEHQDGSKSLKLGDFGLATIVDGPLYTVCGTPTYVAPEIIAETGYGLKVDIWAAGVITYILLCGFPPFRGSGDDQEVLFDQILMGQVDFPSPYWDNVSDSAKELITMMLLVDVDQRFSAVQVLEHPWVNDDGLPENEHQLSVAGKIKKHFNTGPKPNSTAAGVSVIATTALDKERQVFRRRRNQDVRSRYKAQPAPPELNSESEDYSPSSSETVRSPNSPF
Summed up:
(§1)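 Activity relative to DMSO controls (%) was measured for compound at 10 μM. Assays ran at 10 μM ATP, in duplicate.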

Another assay has as its target T2, PAK5 (Homo sapiens, UniProt Q9P286).
T2 construct: purchased Reaction Biology Corp
Summed up:
as §1

Another assay deals with T3, PKAcg (Homo sapiens, UniProt P22612).
T3 construct: purchased Reaction Biology Corp
Summed up:
as §1

A further assay deals with T4, CDK7/cyclin H (Homo sapiens, UniProt P50613).
T4 construct: purchased Reaction Biology Corp
Summed up:
as §1

The next assay concerns the target T5, MEK1 (Homo sapiens, UniProt Q02750).
T5 construct: purchased Reaction Biology Corp
Summed up: as §1

For another assay, the target named is T6, GRK3 (Homo sapiens, UniProt P35626).
T6 construct: purchased Reaction Biology Corp
T6 sequence (P35626 1-688): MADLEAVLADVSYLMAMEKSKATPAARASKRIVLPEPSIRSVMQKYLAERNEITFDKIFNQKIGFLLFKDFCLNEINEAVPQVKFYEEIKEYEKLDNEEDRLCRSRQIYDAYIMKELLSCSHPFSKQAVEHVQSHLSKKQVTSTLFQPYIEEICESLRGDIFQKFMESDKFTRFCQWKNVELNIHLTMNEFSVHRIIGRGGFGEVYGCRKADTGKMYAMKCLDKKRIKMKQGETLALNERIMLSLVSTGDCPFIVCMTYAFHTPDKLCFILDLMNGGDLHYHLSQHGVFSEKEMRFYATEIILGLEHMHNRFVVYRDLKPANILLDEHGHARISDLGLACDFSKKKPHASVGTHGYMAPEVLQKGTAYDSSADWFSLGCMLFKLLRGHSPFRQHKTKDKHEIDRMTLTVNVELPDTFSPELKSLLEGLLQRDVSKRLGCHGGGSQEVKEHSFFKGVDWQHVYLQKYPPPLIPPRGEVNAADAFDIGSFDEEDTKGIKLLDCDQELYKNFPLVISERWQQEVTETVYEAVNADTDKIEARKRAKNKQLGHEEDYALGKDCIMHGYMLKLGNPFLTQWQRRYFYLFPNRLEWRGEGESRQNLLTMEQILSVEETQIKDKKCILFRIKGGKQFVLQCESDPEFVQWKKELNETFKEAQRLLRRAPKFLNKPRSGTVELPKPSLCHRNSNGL
Summed up: as §1

The next assay has as its target T7, MKK6 (Homo sapiens, UniProt P52564).
T7 construct: purchased Reaction Biology Corp
T7 sequence (P52564 1-334): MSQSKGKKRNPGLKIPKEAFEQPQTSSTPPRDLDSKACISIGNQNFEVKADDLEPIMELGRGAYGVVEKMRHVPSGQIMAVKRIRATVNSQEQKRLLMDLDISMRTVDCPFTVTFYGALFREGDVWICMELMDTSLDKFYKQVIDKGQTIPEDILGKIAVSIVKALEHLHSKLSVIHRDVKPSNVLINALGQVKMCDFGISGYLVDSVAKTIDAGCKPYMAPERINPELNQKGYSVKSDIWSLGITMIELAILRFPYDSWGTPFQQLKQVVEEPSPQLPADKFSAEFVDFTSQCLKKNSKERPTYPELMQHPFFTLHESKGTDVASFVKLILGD
Summed up:
as §1

[1] abbreviates: read-out: % Enzyme Activity (relative to DMSO controls) AVG.
Setting [2] is: read-out: % Enzyme Activity (relative to DMSO controls) Data 1.
Where [3] appears, read: read-out: % Enzyme Activity (relative to DMSO controls) Data 2.

Read-outs that look alike come from different tables or passages of the source.

T5 sequence (Q02750 whole entry): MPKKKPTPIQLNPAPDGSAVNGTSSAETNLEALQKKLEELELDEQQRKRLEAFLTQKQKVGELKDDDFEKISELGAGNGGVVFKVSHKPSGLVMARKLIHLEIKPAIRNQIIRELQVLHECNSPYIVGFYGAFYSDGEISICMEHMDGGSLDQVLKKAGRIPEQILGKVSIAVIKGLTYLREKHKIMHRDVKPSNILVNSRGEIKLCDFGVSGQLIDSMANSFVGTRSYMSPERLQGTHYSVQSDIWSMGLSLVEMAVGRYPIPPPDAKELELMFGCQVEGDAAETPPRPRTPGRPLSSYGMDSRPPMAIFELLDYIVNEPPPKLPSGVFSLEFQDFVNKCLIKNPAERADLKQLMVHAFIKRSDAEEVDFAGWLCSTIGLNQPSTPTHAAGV
T4 sequence (P50613 whole entry): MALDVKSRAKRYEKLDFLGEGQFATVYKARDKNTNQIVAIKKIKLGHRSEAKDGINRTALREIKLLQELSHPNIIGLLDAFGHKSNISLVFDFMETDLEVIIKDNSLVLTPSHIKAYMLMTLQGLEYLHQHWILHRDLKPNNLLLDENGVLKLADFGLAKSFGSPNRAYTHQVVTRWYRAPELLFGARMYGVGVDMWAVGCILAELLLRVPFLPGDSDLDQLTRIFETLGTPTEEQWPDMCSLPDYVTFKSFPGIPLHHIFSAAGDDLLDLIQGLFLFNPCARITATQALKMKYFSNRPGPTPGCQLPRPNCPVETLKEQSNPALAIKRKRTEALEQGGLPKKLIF
T4 sequence (P51946 whole entry partner): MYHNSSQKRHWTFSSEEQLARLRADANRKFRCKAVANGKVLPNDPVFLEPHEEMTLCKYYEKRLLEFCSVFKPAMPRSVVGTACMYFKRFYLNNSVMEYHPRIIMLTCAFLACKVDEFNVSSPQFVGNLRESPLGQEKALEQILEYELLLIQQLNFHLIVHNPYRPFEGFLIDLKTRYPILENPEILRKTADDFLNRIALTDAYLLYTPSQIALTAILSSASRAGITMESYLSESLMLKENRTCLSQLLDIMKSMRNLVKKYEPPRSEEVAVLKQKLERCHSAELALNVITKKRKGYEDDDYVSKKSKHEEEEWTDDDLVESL
T4 sequence (P51948 whole entry partner): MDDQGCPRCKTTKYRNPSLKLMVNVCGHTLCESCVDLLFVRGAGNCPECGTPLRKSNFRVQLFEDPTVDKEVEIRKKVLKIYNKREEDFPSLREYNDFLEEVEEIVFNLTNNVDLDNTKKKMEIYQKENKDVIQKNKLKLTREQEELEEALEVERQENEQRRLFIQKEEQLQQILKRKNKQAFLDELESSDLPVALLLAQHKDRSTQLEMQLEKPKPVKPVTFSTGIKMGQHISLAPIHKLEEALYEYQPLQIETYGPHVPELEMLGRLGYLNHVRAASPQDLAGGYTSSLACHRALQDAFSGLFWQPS
T3 sequence (P22612 whole entry): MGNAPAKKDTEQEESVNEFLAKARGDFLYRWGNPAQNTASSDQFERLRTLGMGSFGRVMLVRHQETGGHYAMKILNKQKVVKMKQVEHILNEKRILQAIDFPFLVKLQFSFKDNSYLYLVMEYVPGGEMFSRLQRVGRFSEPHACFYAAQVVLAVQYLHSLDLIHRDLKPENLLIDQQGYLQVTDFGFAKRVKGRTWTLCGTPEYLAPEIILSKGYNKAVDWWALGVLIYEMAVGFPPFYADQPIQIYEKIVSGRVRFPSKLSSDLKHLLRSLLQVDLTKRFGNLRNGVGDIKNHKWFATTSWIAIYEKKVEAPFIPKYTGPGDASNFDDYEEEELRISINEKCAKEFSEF
T2 sequence (Q9P286 whole entry): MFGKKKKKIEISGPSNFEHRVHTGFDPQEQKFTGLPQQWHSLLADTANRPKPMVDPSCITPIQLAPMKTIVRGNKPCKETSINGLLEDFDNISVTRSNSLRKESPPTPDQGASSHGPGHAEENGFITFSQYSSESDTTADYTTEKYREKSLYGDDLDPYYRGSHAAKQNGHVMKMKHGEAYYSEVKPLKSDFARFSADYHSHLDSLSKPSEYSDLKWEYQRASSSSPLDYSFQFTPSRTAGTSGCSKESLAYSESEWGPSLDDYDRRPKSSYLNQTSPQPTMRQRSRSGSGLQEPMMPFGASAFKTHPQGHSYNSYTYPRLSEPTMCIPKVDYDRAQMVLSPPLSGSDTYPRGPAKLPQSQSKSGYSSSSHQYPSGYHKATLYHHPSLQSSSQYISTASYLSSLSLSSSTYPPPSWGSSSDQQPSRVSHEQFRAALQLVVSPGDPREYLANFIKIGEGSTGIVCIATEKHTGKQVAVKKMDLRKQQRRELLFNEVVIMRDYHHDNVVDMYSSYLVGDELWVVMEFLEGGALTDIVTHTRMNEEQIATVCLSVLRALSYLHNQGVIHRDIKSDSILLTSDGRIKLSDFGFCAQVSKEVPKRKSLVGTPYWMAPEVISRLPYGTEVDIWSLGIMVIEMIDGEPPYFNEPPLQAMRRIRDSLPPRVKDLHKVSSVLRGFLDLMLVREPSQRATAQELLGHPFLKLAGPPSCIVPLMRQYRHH

Turning to `CC(C)(C)C(=O)N1N=CC[C@H]1c1ccccc1` [GSK′963], the remaining activity at 10 µM is 92.5% on DCAMKL1 (setting [1]); 96.2% on DCAMKL1 (setting [2]); 88.8% on DCAMKL1 (setting [3]); 124% on PAK5 (setting [1]); 119% on PAK5 (setting [2]); 128% at PAK5 (setting [3]). For the same molecule, the remaining activity at 10 µM was 122% on PKAcg (setting [1]); 123% at PKAcg (setting [2]); 122% on PKAcg (setting [3]); 96.7% on CDK7/cyclin H (setting [1]); 98.8% at CDK7/cyclin H (setting [2]); 94.6% at CDK7/cyclin H (setting [3]). Moreover, the remaining activity at 10 µM on MEK1 (setting [1]) was determined as 103%; on MEK1 (setting [2]) it was 103%; on MEK1 (setting [3]) it was 103%; on GRK3 (setting [1]) it was 97.9%; at GRK3 (setting [2]), 98.1%; on GRK3 (setting [3]) it was 97.6%. Further, the remaining activity at 10 µM at MKK6 (setting [1]) was found to be 99.7%; on MKK6 (setting [2]), 101%; on MKK6 (setting [3]) it was 98.6%.
